Assays:
Format in all cases: biochemical
[1] = system: human JAK1 (a.a. 837-1142) catalytic domain; test: In vitro JAK kinase assay (HTRF, phosphorylation of a biotinylated peptide), JAK1; details: ratio of JAK2 IC50 to JAK1 IC50, 1 mM ATP
Method: (§1) Compounds herein were tested for inhibitory activity of JAK targets according to the following in vitro assay described in Park et al., Analytical Biochemistry 1999, 269, 94-104. The catalytic domains of human JAK1 (a.a. 837-1142) and JAK2 (a.a. 828-1132) with an N-terminal His tag were expressed using baculovirus in insect cells and purified. The catalytic activity of JAK1 and JAK2 was assayed by measuring the phosphorylation of a biotinylated peptide. The phosphorylated peptide was detected by homogenous time resolved fluorescence (HTRF). IC50s of compounds were measured for each kinase in the 40 microL reactions that contain the enzyme, ATP and 500 nM peptide in 50 mM Tris (pH 7.8) buffer with 100 mM NaCl, 5 mM DTT, and 0.1 mg/mL (0.01%) BSA. For the 1 mM IC50 measurements, ATP concentration in the reactions was 1 mM. Reactions were carried out at room temperature for 1 hour and then stopped with 20 μL 45 mM EDTA, 300 nM SA-APC, 6 nM Eu-Py20 in assay buffer (Perkin Elmer, Boston, Mass.). Binding to the Europium labeled antibody took place for 40 minutes and HTRF signal was measured on a Fusion plate reader (Perkin Elmer, Boston, Mass.). See Table A for data related to compounds of the Examples (at 1 mM). Data is indicated as ranges: <20 nM (+), 20 to <150 nM (++), 150 to 500 nM (+++).

[2] = target: T1, human JAK1 (a.a. 837-1142) catalytic domain (Homo sapiens, UniProt P23458); test: as above; details: 1 mM ATP
T1 construct: human JAK1 (a.a. 837-1142) and JAK2 (a.a. 828-1132); His tag (N); made in house; host or cells: insect cells (baculovirus)
Method: as §1

[3] = target: T2, human JAK2 (a.a. 828-1132) catalytic domain (Homo sapiens, UniProt O60674); test: In vitro JAK kinase assay (HTRF, phosphorylation of a biotinylated peptide), JAK2; details: 1 mM ATP
T2 construct: human JAK1 (a.a. 837-1142) and JAK2 (a.a. 828-1132); His tag (N); made in house; host or cells: insect cells (baculovirus)
Method: as §1

T1 sequence (P23458 849-1154): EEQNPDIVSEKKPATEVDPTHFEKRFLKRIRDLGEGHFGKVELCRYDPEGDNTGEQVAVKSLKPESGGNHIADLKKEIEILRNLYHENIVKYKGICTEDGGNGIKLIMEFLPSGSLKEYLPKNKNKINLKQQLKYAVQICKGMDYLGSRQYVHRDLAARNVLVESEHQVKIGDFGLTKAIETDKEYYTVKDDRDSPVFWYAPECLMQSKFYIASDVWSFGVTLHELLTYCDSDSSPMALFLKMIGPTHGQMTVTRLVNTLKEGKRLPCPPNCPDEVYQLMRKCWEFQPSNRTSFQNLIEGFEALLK
T2 sequence (O60674 828-1132): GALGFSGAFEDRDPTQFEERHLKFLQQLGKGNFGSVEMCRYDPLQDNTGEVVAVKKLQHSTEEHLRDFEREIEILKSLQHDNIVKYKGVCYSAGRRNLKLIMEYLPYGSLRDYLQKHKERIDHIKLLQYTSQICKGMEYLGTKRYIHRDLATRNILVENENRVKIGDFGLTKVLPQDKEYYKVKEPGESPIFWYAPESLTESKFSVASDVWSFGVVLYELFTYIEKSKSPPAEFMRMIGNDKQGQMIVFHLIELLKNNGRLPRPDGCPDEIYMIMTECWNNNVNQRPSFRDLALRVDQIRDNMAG

Compound | JAK2/JAK1 [1] | IC50 [2] [nM] | IC50 [3] [nM]
CC1(C)CN(Cc2cc(NC3CCN([C@H]4C[C@](CC#N)(n5cc(-c6ncnc7[nH]ccc67)cn5)C4)CC3)nc(C(F)(F)F)c2)C1 [Example 35, {trans-3-(4-{[4-[(3,3-dimethylazetidin-1-yl)methyl]-6-(trifluoromethyl)pyridin-2-yl]amino}piperidin-1-yl)-1-[4-(7H-pyrrolo[2,3-d]pyrimidin-4-yl)-1H-pyrazol-1-yl]cyclobutyl}acetonitrile] | >10 | < 20 | 20 to 150
C[C@H](O)CNCc1cc(OC2CCN([C@H]3C[C@](CC#N)(n4cc(-c5ncnc6[nH]ccc56)cn4)C3)CC2)nc(C(F)(F)F)c1 [Example 15, {trans-3-(4-{[4-({[(2S)-2-hydroxypropyl]amino}methyl)-6-(trifluoromethyl)pyridin-2-yl]oxy}piperidin-1-yl)-1-[4-(7H-pyrrolo[2,3-d]pyrimidin-4-yl)-1H-pyrazol-1-yl]cyclobutyl}acetonitrile] | >10 | < 20 | 20 to 150
N#CC[C@]1(n2cc(-c3ncnc4[nH]ccc34)cn2)C[C@H](N2CCC(Oc3cc(CN[C@@H]4CCOC4)cc(C(F)(F)F)n3)CC2)C1 [Example 8, [trans-1-[4-(7H-pyrrolo[2,3-d]pyrimidin-4-yl)-1H-pyrazol-1-yl]-3-(4-{[4-{[(3R)-tetrahydrofuran-3-ylamino]methyl}-6-(trifluoromethyl)pyridin-2-yl]oxy}piperidin-1-yl)cyclobutyl]acetonitrile] | >10 | < 20 | 20 to 150
C[C@@H](CO)NCc1cc(OC2CCN([C@H]3C[C@](CC#N)(n4cc(-c5ncnc6[nH]ccc56)cn4)C3)CC2)nc(C(F)(F)F)c1 [Example 1, {trans-3-(4-{[4-({[(1S)-2-hydroxy-1-methylethyl]amino}methyl)-6-(trifluoromethyl)pyridin-2-yl]oxy}piperidin-1-yl)-1-[4-(7H-pyrrolo[2,3-d]pyrimidin-4-yl)-1H-pyrazol-1-yl]cyclobutyl}acetonitrile] | >10 | < 20 | 20 to 150
N#CC[C@]1(n2cc(-c3ncnc4[nH]ccc34)cn2)C[C@H](N2CCC(Nc3cc(CN4CCOCC4)cc(C(F)(F)F)n3)CC2)C1 [Example 40, {trans-3-(4-{[4-(morpholin-4-ylmethyl)-6-(trifluoromethyl)pyridin-2-yl]amino}piperidin-1-yl)-1-[4-(7H-pyrrolo[2,3-d]pyrimidin-4-yl)-1H-pyrazol-1-yl]cyclobutyl}acetonitrile] | >10 | < 20 | 20 to 150
C[C@@H](O)CNCc1cc(OC2CCN([C@H]3C[C@](CC#N)(n4cc(-c5ncnc6[nH]ccc56)cn4)C3)CC2)nc(C(F)(F)F)c1 [Example 14, {trans-3-(4-{[4-({[(2R)-2-hydroxypropyl]amino}methyl)-6-(trifluoromethyl)pyridin-2-yl]oxy}piperidin-1-yl)-1-[4-(7H-pyrrolo[2,3-d]pyrimidin-4-yl)-1H-pyrazol-1-yl]cyclobutyl}acetonitrile] | >10 | < 20 | 20 to 150
COCCNCc1cc(OC2CCN([C@H]3C[C@](CC#N)(n4cc(-c5ncnc6[nH]ccc56)cn4)C3)CC2)nc(C(F)(F)F)c1 [Example 3, {trans-3-(4-{[4-{[(2-methoxyethyl)amino]methyl}-6-(trifluoromethyl)pyridin-2-yl]oxy}piperidin-1-yl)-1-[4-(7H-pyrrolo[2,3-d]pyrimidin-4-yl)-1H-pyrazol-1-yl]cyclobutyl}acetonitrile] | >10 | < 20 | 20 to 150
N#CC[C@]1(n2cc(-c3ncnc4[nH]ccc34)cn2)C[C@H](N2CCC(Oc3cc(Cn4ccnc4)cc(C(F)(F)F)n3)CC2)C1 [Example 22, {trans-3-(4-{[4-(1H-imidazol-1-ylmethyl)-6-(trifluoromethyl)pyridin-2-yl]oxy}piperidin-1-yl)-1-[4-(7H-pyrrolo[2,3-d]pyrimidin-4-yl)-1H-pyrazol-1-yl]cyclobutyl}acetonitrile] | >10 | < 20 | 20 to 150
CN(CCO)Cc1cc(NC2CCN([C@H]3C[C@](CC#N)(n4cc(-c5ncnc6[nH]ccc56)cn4)C3)CC2)nc(C(F)(F)F)c1 [Example 42, {trans-3-(4-{[4-{[(2-hydroxyethyl)(methyl)amino]methyl}-6-(trifluoromethyl)pyridin-2-yl]amino}piperidin-1-yl)-1-[4-(7H-pyrrolo[2,3-d]pyrimidin-4-yl)-1H-pyrazol-1-yl]cyclobutyl}acetonitrile] | >10 | < 20 | 20 to 150
CC1(NCc2cc(OC3CCN([C@H]4C[C@](CC#N)(n5cc(-c6ncnc7[nH]ccc67)cn5)C4)CC3)nc(C(F)(F)F)c2)CC1 [Example 10, {trans-3-(4-{[4-{[(1-methylcyclopropyl)amino]methyl}-6-(trifluoromethyl)pyridin-2-yl]oxy}piperidin-1-yl)-1-[4-(7H-pyrrolo[2,3-d]pyrimidin-4-yl)-1H-pyrazol-1-yl]cyclobutyl}acetonitrile] | >10 | < 20 | 20 to 150
N#CC[C@]1(n2cc(-c3ncnc4[nH]ccc34)cn2)C[C@H](N2CCC(Oc3cc(C4(O)COC4)cc(C(F)(F)F)n3)CC2)C1 [Example 49, {trans-3-(4-{[4-(3-hydroxyoxetan-3-yl)-6-(trifluoromethyl)pyridin-2-yl]oxy}piperidin-1-yl)-1-[4-(7H-pyrrolo[2,3-d]pyrimidin-4-yl)-1H-pyrazol-1-yl]cyclobutyl}acetonitrile] | >10 | < 20 | 20 to 150
N#CC[C@]1(n2cc(-c3ncnc4[nH]ccc34)cn2)C[C@H](N2CCC(Oc3cc(Cn4cncn4)cc(C(F)(F)F)n3)CC2)C1 [Example 23, [trans-1-[4-(7H-pyrrolo[2,3-d]pyrimidin-4-yl)-1H-pyrazol-1-yl]-3-(4-{[4-(1H-1,2,4-triazol-1-ylmethyl)-6-(trifluoromethyl)pyridin-2-yl]oxy}piperidin-1-yl)cyclobutyl]acetonitrile] | >10 | < 20 | 20 to 150
N#CC[C@]1(n2cc(-c3ncnc4[nH]ccc34)cn2)C[C@H](N2CCC(Oc3cc(CNC4COC4)cc(C(F)(F)F)n3)CC2)C1 [Example 11, {trans-3-(4-{[4-[(oxetan-3-ylamino)methyl]-6-(trifluoromethyl)pyridin-2-yl]oxy}piperidin-1-yl)-1-[4-(7H-pyrrolo[2,3-d]pyrimidin-4-yl)-1H-pyrazol-1-yl]cyclobutyl}acetonitrile] | >10 | < 20 | 20 to 150
CCNCc1cc(NC2CCN([C@H]3C[C@](CC#N)(n4cc(-c5ncnc6[nH]ccc56)cn4)C3)CC2)nc(C(F)(F)F)c1 [Example 32, {trans-3-(4-{[4-[(ethylamino)methyl]-6-(trifluoromethyl)pyridin-2-yl]amino}piperidin-1-yl)-1-[4-(7H-pyrrolo[2,3-d]pyrimidin-4-yl)-1H-pyrazol-1-yl]cyclobutyl}acetonitrile] | >10 | < 20 | 20 to 150
N#CC[C@]1(n2cc(-c3ncnc4[nH]ccc34)cn2)C[C@H](N2CCC(Nc3cc(CN4CC(O)C4)cc(C(F)(F)F)n3)CC2)C1 [Example 41, {trans-3-(4-{[4-[(3-hydroxyazetidin-1-yl)methyl]-6-(trifluoromethyl)pyridin-2-yl]amino}piperidin-1-yl)-1-[4-(7H-pyrrolo[2,3-d]pyrimidin-4-yl)-1H-pyrazol-1-yl]cyclobutyl}acetonitrile] | >10 | < 20 | 20 to 150
N#CC[C@]1(n2cc(-c3ncnc4[nH]ccc34)cn2)C[C@H](N2CCC(Nc3cc(CN[C@H]4C[C@H](O)C4)nc(C(F)(F)F)n3)CC2)C1 [Example 30, {trans-3-(4-{[6-{[(trans-3-hydroxycyclobutyl)amino]methyl}-2-(trifluoromethyl)pyrimidin-4-yl]amino}piperidin-1-yl)-1-[4-(7H-pyrrolo[2,3-d]pyrimidin-4-yl)-1H-pyrazol-1-yl]cyclobutyl}acetonitrile] | >10 | < 20 | 20 to 150
CC1(C)CN(C(=O)c2cc(OC3CCN([C@H]4C[C@](CC#N)(n5cc(-c6ncnc7[nH]ccc67)cn5)C4)CC3)nc(C(F)(F)F)c2)C1 [Example 26, {trans-3-(4-{[4-[(3,3-dimethylazetidin-1-yl)carbonyl]-6-(trifluoromethyl)pyridin-2-yl]oxy}piperidin-1-yl)-1-[4-(7H-pyrrolo[2,3-d]pyrimidin-4-yl)-1H-pyrazol-1-yl]cyclobutyl}acetonitrile] | >10 | < 20 | 150 to 500

— patent publication US9193733B2, “Piperidinylcyclobutyl substituted pyrrolopyridine and pyrrolopyrimidine derivatives as JAK inhibitors” (Incyte Corporation, priority 2012, dated 2015)
